Experimental data taken from a melting point compilation (Tetko et al.; mined from patent text by program, amines drawn as free bases though some values may be those of a salt).

Row | melting point [°C] | SMILES
1 | 200 to 205 | COCC(OC(N)=O)c1nc2cc(F)c(OC(C)c3c(Cl)ccc(F)c3Cl)cc2s1 (stereo not drawn)
2 | 228 to 229 | CCCCNS(=O)(=O)c1cc(C(=O)O)cc(N)c1Sc1ccc(NC(C)=O)cc1
3 | 198 to 200 | CCCCc1c(CNC(=O)OC(C)(C)C)c(CC(C)C)nc2ccc(O)cc12
4 | 97 to 98 | CCCCn1nc(-c2ccccc2)c(CC(=O)O)c1-c1ccccc1
5 | 178 to 179 | COCCOc1cc(OC)c(C(CC(=O)Nc2cc(C(N)=O)ccc2C(C)(C)C)CC(C)C)cc1Cl (stereo not drawn)
6 | 95 | O=c1oc(=O)n(Cc2ccccc2)c2ccc(F)cc12
7 | 220 to 224 | CCCc1ccc(NC(=O)c2cccnc2NCc2ccc(=O)[nH]c2)cc1C(F)(F)F
8 | 291 to 294 | CCc1nn(C)c2[nH]c(=O)c3ccccc3c12
9 | 121 to 123 | CCOC(=O)CCc1cccc(-c2c(CC(=O)Nc3ccc(F)cc3C(F)(F)F)c(=O)oc3cc(Cl)c(C)cc23)c1
10 | 158 | CCOC(=O)[C@H](Cn1cc(C)c(SC#N)nc1=O)NS(=O)(=O)N(C)C
11 | 219 to 221 | CC(C)Cn1c(CNC(=O)OC(C)(C)C)c(-c2cccs2)c2cc(OCC(N)=O)ccc2c1=O
12 | 222 to 224 | CC(C)n1nc(-c2c(NCCO)nc(N)nc2-c2ccccc2)ccc1=O
13 | 172 to 174 | Cc1ccc([N+](=O)[O-])c(CC2NC(=O)NC2=O)c1C (stereo not drawn)
14 | 254 to 256 | O=C(O)CN1C(=O)C(=Cc2ccc(Cc3cccnc3)s2)SC1=S
15 | 180 to 181 | CC(C)(COC(=O)c1cc(Cl)c(O)c(Cl)c1)COC(=O)c1cc(Cl)c(O)c(Cl)c1
16 | 210 | CCCc1nc(C)n2nc(S)nc2c1Cc1ccc([N+](=O)[O-])cc1
17 | 109 | CCCN(c1nc(-c2ccc(OC)cc2Cl)c(C)s1)c1cc(C(=O)O)ccc1OC
18 | 271 to 272 | O=C(O)c1cccc(-c2cccc([N+](=O)[O-])c2)c1
19 | 107 to 110 | Cc1cc(-c2cc(CO)c(=O)n(CC(C)C)n2)ccc1F
20 | 200 to 202 | CCCCc1ncc(/C=C(/C(=O)O)C(Cc2ccccc2)c2cccs2)n1Cc1ccccc1Cl (stereo not drawn)

Row | melting point [°C] | SMILES
21 | 230 to 240 | CCCc1nc2ccnn2c(O)c1Cc1ccc(-c2ccccc2C(=O)O)cc1
22 | 173 to 175 | COC(=O)C1=C(C)NC(C)=C(C(=O)OC)C1c1ccccc1-c1cccs1
23 | 173 to 174 | CCOC(=O)c1cc2cc(-c3ccccc3)ccc2[nH]1
24 | 154 to 156 | CCCN(c1cccc(-c2ccnc3c([N+](=O)[O-])cnn23)c1)S(=O)(=O)c1ccccc1
25 | 95 to 97 | CCCC1NS(=O)(=O)N(COC(=O)c2c(Cl)cccc2Cl)C1=O (stereo not drawn)
26 | 74 to 77 | COC(=O)c1cccc(-c2nnc(-c3ccc(C(C)C)cc3)o2)c1
27 | 139 to 141 | CCOC(=O)NNc1cccc(Cl)n1
28 | 160 to 162 | COc1c(Cl)ccc(-c2cc(N)c(Cl)c(C(=O)NOCc3ccoc3)n2)c1F
29 | 192 to 195 | CCN1CC(c2ccccc2)=C(O)C1=O
30 | 113 to 115 | COC(=O)c1ccc(N2CCCC2CO)cc1N (stereo not drawn)
31 | 93 to 94 | COC(=O)/C(=C/C=C/c1cc2ccccc2n1C)OC
32 | 114 | CCCCCCCC(=O)Oc1ccc2nc(S(N)(=O)=O)sc2c1
33 | 149 to 150 | O=C1c2ccccc2C(=O)N1CCSc1ncccn1
34 | 82 to 83 | Clc1ncn(COc2ccc(Oc3ccccc3)cc2)c1Cl
35 | 225 to 227 | O=C(O)c1ccc(NCc2cc(Cl)c(Cl)s2)cc1
36 | 69 to 70 | CC(=O)OCCOCn1cnc2c(N)nc(N)nc21
37 | 86 to 89 | CC(C)(C)OC(=O)CN1C(=O)[C@@H](N)CSc2ccccc21
38 | 125 to 127 | O=C1NC(C(=O)NCCO[N+](=O)[O-])C(c2ccc(Cl)cc2)S1 (stereo not drawn)
39 | > 250 | CC(C)N1Cc2c(-n3c(=O)cc(C(F)(F)F)[nH]c3=O)ccc(Cl)c2C1=O
40 | 145 to 147 | CCOc1ccc(C(O)CN2CCOCC2)cc1-c1nc2c(C)cccc2c(=O)[nH]1 (stereo not drawn)

The remaining lines, values behind:

Row | SMILES | melting point [°C]
41 | COc1ccc(CC(C#N)=CNc2ccccc2)c2ccccc12 | 188 to 189
42 | COC(=O)C=C(C(=O)OC)N1CCC23C=CC(O)CC2Oc2c(OC)ccc(c23)C1 (stereo not drawn) | 121 to 122
43 | COC(=O)c1ccc(-c2coc(-c3ccc4c(c3)C(C)(C)CCC4(C)C)c2)cc1 | 109 to 111
44 | CC(C)(C)OC(=O)Nc1cc(N2CCC3(CC2)OCCO3)c(-c2ccccc2F)cc1N | 198
45 | O=C(O)c1c2c(nc3ccc(F)cc13)-c1cc(F)c(-c3ccc(F)cc3)cc1CCC2 | > 300
46 | CC(C)(C)OC(=O)c1cc(I)ccc1OCc1ccc2ccccc2c1 | 90
47 | Cc1c(C)c(N2CCN(c3ccc(Br)cc3)CC2)c(C)c2c1OC(C)C2 (stereo not drawn) | 202 to 204
48 | CS(=O)(=O)CN=C(N)NCCSCc1csc(NC(N)=NCC(F)(F)C(F)(F)F)n1 | 149 to 151
49 | CSC(=O)C(=O)c1ccc(NC=O)nc1 | 152 to 154
50 | Cc1cc(=O)n2nc(-c3ccncc3)nc2n1C | 263 to 267
51 | CCCCC(Cc1cc(C(C)(C)C)c(O)c(C(C)(C)C)c1)(C(=O)OC1CC(C)(C)N(C(C)=O)C(C)(C)C1)C(=O)OC1CC(C)(C)N(C(C)=O)C(C)(C)C1 | 120 to 124
52 | N#Cc1c(-c2ccccc2)cc(N2CCOCC2)nc1Cl | 198 to 200
53 | CC1(C)Oc2cc(CCc3ccccc3)cc(O)c2C2=CC(=O)CCC21 (stereo not drawn) | 233 to 235
54 | OCCc1c[nH]c2cc(-c3cc(Nc4ccc(N5CCOCC5)cn4)c4nccn4c3)ccc12 | 159 to 161
55 | Cn1nnnc1-c1cn(C)c2cc(C#N)ccc2c1=O | 301 to 303
56 | Cc1cc(C(=O)CS(C)(=O)=O)cc(C)c1N(C)C | 132 to 133
57 | COc1ccc(C2CC(O)CCC2[N+](=O)[O-])cc1OC (stereo not drawn) | 126 to 127
58 | COC1CCC2C3CCC4CC(=O)C(Cl)CC4(C)C3CCC12C (stereo not drawn) | 202 to 210
59 | CCN(CC)c1ccc2c(c1)Oc1cc(N(Cc3ccccc3)C(C)=O)c3ccccc3c1N2C(C)=O | 202 to 204
60 | CCOc1ccc(/C=C(\NC(=O)c2ccc(OCC(C)C)cc2)C(=O)NCCO)cc1 | 124 to 125

Row | SMILES | melting point [°C]
61 | CCCc1c(OCCCCCCc2ccc3cc(O)c(O)cc3c2)ccc(C(=O)O)c1O | 154 to 158
62 | Fc1ccc(Cn2cnc3c(-c4ccco4)nc(Cl)nc32)cc1 | 152 to 155
63 | N#Cc1ccc2c(c1)Sc1ccc([N+](=O)[O-])cc1C=C2 | 234 to 236
64 | O=C(O)CCC=C(c1ccc(F)cc1)c1ccc(F)cc1 | 100
65 | CN1CCN(c2n[nH]c(=S)n2C2CCc3ccccc3C2)CC1 (stereo not drawn) | 217 to 218
66 | COc1ccc(/C=C/C(=O)Nc2ccc(Br)cc2C(=O)O)cc1OC | 210 to 213
67 | CN1C(C)(C)CC(OC(=O)NNC(=O)C(=O)NC2CC(C)(C)NC(C)(C)C2)CC1(C)C | 165 to 170
68 | O=S(=O)(CCO)c1ccccc1 | 87 to 89
69 | COc1cc(C(=O)/C=C/c2c(-c3ccc(F)cc3)nc3sccn23)cc(OC)c1OC | 222 to 225
70 | N#Cc1c(N2CC[C@@H](C3(N)CC3)C2)ccc2c(=O)c(C(=O)O)cn([C@@H]3C[C@@H]3F)c12 | 138 to 140
71 | ClC1Cc2cc(Br)ccc2Sc2ccccc21 (stereo not drawn) | 122 to 124
72 | O=C1COc2ccc(C#Cc3ccccn3)cc2N1 | 210
73 | COc1ccc2[nH]c(S(=O)Cc3nccc(N4CCOCC4)c3F)nc2c1 (stereo not drawn) | 142 to 146
74 | COC(COc1cc(-n2ncc(C(F)(F)F)c(C)c2=O)c(F)cc1Cl)OC | 86
75 | Cc1cc(C)n(C(=O)CCl)n1 | 62
76 | Cc1cn(C2CCCCC2)c(=O)[nH]c1=S | 177 to 178
77 | COc1ccc(-c2csc(Nc3cnccn3)n2)cc1OC | 205 to 207
78 | Cc1ccc(C)c(C(=O)NCC23CC4CC(CC(Cl)(C4)C2)C3)c1 | 155
79 | O=C(/C=C/C=C(c1cccc([N+](=O)[O-])c1)c1cccc([N+](=O)[O-])c1)NCCCCc1cccnc1 | 158 to 159
80 | CCCCCCCN(CCN1CCN(CCSc2nc3ccccc3o2)CC1)C(=O)Nc1c(C(C)C)cccc1C(C)C | 110 to 111

Row | SMILES | melting point [°C]
81 | O=C(NCCO)c1cnc(C(=O)NCCO)s1 | 182 to 184
82 | O=C(Nc1cccc(F)c1)NN1CC=CCC1 | 136 to 138
83 | CN(C)Cc1ncc2c(c1O)COC2(c1ccccc1)c1ccc(F)cc1 (stereo not drawn) | 184
84 | CC(C)[C@@H](C(=O)N1C(=O)O[C@@H](c2ccccc2)[C@H]1C)[C@@H](O)[C@@H]1OC(C)(C)N(C(=O)OC(C)(C)C)[C@H]1CC1CCCCC1 | 97
85 | CCOC(=O)CCNC(=O)C(Cc1ccc(-c2ccccc2)cc1)N(CP(=O)(O)O)C(OC(=O)CC)C(C)C (stereo not drawn) | 154 to 158
86 | Cc1ccc(N2C(=O)N(CC(=O)Nc3c(C(C)C)cccc3C(C)C)C(=O)C23CCN(C(=O)OC(C)(C)C)CC3)cc1 | 227 to 229
87 | CNC(=O)CCCC1CCN(Cc2cnc3cc(NC(=O)c4ccc(-c5ccc(F)cc5)cc4)c(C)cc3c2)CC1 | 223
88 | CCOCCn1c(NC2CCN(C(=O)c3ccccc3N)C(Cc3ccccc3)C2)nc2ccccc21 (stereo not drawn) | 197
89 | N#CCc1c[nH]c2ccc(NC(N)=S)cc12 | 212 to 214
90 | C=C(c1ccc(-c2nnc(N)s2)cc1)C(O)(Cn1cncn1)c1ccc(F)cc1F (stereo not drawn) | 118 to 121
91 | CCC(C)n1ncn(-c2ccc(N3CCN(c4ccc(O)cc4)CC3)cn2)c1=O (stereo not drawn) | 144 to 145
92 | COc1ccc(S(=O)(=O)Nc2ccccc2NC(=O)c2cccc(O)c2)cc1 | 191 to 192
93 | C[C@@H]1CN(CC(=O)Nc2nc3ccccc3n2C)C[C@H](C)N1c1ncnc2sccc12 | 200
94 | CNC(=O)c1ccc(Nc2nccc(-c3cccnc3)n2)cc1 | 254 to 257
95 | COC(=O)c1cncn1C1c2ccccc2C(=O)C1(C)C (stereo not drawn) | 104 to 108
96 | CC(=O)Nc1nc(C)c(S(=O)(=O)NCCO)s1 | 211
97 | CCCc1[nH]cnc1C=O | 120 to 124
98 | CSc1ccc2cc(Nc3ccc(O)cc3)ccc2c1 | 127 to 128
